For test [1], the system named is phosp-KAP1 in MCF-7 cells. Briefly: phosp-KAP1 MCF-7 cellular potency assay (Assay f). The format is cell-based. To be noted: Homo sapiens, MCF7; MCF-7 cells, etoposide; read-out: Etoposide MCF-7 cellular IC50. How it is done:
Assay f): phosp-KAP1 MCF-7 Cellular Potency
MCF-7 cells were seeded to a 384-well cell-culture plate, 25 μl/well which were incubated at 37° C. and 5% CO2 for 24 hr. Test compounds were added to the 384-well plates. Etoposide at final concentration of 100 μM was then added to each well except Vehicle control wells, which were incubated at 37° C. and 5% CO2 for 1 hour. After medium removal, cells were fixed by the addition of 25 μl/well of 8% paraformaldehyde in PBSA and incubated for 20 minutes at room temperature. After the plates were rinsed 3 times with PBSA, 50 ul permeabilization buffer (0.1% Triton X-100 in PBS) was added and the plates were incubated for 20 minutes at room temperature. After the plates were rinsed with PBSA, block the cells by adding 50 μl of Odyssey Blocking Buffer in 384-well plate and then incubate for 1.5 hours at room temperature. Remove blocking buffer by Plate washer (BioTek ELx405 select CW). […] The plates were rinsed 5 times with PBST (0.1% Tween-20 in PBS).
• 1) Fluorescence intensity (FI) was detected for each well. • 2) % inhibition is calculated as follow:
[formula] • FIpositive: The average FI for the positive controls across the plate. • FIvehicle: The average FI for negative controls across the plate. • 3) Calculate IC50 and Plot effect-dose curve of compounds: • Calculate IC50 by fitting % inhibition values and log of compound concentrations to nonlinear regression (dose response−variable slope) with Graphpad prism 6.0.
Y=Bottom+(Top−Bottom)/(1+10^((Log IC50−X)*HillSlope)) • X: log of compounds concentration; Y: % inhibition

In a further test the target is ATM (Homo sapiens (Human), UniProt Q13315). Briefly: biochemical. The format is biochemical. Conditions: read-out: ATM IC50. The text has this:
Assay a): ATM Biochemical Potency
Data was collected by Caliper.

Molecules are shown by their SMILES.

The IC50 is the midpoint of a concentration-inhibition curve.

ATM, sequence (Q13315 whole entry, looked up): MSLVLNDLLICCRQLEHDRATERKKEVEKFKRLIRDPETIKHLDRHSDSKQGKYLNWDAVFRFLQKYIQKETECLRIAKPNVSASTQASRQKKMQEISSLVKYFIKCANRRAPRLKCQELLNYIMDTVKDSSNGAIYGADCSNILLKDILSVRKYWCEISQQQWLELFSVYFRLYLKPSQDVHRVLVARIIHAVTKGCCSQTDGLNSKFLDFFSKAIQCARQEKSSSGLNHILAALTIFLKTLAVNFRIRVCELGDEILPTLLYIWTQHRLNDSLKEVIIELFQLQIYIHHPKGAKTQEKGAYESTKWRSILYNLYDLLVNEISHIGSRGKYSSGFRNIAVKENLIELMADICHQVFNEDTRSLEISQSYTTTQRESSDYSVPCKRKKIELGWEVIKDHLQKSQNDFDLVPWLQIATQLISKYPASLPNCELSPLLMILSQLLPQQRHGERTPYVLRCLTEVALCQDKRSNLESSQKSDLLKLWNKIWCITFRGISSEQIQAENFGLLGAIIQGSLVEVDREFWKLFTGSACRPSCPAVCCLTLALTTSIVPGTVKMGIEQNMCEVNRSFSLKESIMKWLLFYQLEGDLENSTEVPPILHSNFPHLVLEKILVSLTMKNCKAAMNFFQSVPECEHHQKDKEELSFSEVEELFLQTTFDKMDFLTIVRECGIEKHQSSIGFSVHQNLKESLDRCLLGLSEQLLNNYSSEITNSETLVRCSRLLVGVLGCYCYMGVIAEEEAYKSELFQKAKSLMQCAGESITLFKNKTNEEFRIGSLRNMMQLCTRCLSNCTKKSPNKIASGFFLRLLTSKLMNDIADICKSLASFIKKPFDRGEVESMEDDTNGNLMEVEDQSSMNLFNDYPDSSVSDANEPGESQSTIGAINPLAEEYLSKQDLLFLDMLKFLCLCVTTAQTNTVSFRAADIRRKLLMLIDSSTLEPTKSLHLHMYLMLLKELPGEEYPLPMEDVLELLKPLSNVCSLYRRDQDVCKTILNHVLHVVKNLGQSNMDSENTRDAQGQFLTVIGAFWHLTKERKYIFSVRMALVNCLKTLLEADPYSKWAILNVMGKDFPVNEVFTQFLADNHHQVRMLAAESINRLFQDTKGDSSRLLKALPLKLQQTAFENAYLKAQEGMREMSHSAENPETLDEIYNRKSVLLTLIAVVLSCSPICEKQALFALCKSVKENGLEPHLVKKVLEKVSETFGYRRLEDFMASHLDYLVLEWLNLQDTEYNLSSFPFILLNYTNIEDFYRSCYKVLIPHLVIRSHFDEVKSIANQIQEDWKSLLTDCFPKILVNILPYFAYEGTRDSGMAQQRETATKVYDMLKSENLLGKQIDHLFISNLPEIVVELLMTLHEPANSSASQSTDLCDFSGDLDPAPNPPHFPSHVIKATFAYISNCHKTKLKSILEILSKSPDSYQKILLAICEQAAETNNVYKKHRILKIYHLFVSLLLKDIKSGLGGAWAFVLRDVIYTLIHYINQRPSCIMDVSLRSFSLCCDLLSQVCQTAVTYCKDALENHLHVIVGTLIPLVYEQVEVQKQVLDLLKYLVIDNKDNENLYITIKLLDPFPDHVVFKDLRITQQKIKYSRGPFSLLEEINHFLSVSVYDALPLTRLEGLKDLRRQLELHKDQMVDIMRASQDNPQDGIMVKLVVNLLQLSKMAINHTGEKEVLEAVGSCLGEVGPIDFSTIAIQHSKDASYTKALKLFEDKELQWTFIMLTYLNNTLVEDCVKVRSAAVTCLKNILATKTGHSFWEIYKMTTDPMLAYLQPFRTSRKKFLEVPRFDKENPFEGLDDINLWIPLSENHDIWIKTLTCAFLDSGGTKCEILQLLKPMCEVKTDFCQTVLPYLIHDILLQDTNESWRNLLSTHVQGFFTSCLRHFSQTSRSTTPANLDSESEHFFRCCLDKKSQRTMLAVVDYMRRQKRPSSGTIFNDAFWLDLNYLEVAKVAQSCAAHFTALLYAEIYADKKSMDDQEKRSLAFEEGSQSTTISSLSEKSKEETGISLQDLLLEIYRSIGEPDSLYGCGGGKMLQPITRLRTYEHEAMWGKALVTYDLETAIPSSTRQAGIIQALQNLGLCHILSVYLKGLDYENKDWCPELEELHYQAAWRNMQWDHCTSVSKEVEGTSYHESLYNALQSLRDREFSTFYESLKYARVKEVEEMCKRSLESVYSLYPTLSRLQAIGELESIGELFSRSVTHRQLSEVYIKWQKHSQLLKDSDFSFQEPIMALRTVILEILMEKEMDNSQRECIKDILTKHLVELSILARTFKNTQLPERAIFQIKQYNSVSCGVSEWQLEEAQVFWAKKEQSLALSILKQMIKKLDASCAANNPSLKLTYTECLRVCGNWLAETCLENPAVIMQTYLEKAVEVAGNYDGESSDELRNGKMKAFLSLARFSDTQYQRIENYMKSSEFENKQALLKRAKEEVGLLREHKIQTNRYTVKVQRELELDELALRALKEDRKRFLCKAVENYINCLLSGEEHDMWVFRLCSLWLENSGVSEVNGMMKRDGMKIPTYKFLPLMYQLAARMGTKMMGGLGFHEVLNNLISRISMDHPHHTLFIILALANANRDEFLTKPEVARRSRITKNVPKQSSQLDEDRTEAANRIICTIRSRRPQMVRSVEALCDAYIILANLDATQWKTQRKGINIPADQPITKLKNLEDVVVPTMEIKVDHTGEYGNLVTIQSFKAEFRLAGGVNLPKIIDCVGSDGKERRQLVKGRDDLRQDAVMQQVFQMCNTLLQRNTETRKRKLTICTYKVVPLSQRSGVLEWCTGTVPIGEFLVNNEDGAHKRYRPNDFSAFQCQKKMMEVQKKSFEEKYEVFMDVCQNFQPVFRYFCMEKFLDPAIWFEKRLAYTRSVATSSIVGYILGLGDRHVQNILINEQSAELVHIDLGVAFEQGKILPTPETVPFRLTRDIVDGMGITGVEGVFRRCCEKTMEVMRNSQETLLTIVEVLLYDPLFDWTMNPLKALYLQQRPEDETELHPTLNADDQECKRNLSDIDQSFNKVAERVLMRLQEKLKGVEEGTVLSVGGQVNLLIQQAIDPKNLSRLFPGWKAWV

With `CC(C)n1c(=O)n(C)c2nnc3ccc(-c4ccc([C@@H](C)OCCN5CCC(OC(F)F)C5)nc4)cc3c21` (stereo partly drawn) [Example 54, 8-(6-((1R)-1-(2-(3-(difluoromethoxy)pyrrolidin-1-yl)ethoxy)ethyl)pyridin-3-yl)-1-isopropyl-3-methyl-1H-imidazo[4,5-c]cinnolin-2(3H)-one], the concentration for half-maximal inhibition (IC50) in test [1] was 17 nM.

Regarding `CC(C)n1c(=O)n(C)c2nnc3ccc(-c4ccc([C@@H](C)OCCN5CCC6(CC5)CC6)nc4)cc3c21` [Example 55, (R)-8-(6-(1-(2-(6-azaspiro[2.5]octan-6-yl)ethoxy)ethyl)pyridin-3-yl)-1-isopropyl-3-methyl-1H-imidazo[4,5-c]cinnolin-2(3H)-one], the concentration for half-maximal inhibition (IC50) came to 3.2 nM on ATM and 11 nM in test [1]. `CO[C@H]1CCN(CCO[C@H](C)c2ccc(-c3ccc4nnc5c(c4c3)n(C(C)C)c(=O)n5C)cn2)C1` [Example 59, 1-isopropyl-8-(6-((R)-1-(2-((S)-3-methoxypyrrolidin-1-yl)ethoxy)ethyl)pyridin-3-yl)-3-methyl-1H-imidazo[4,5-c]cinnolin-2(3H)-one]: the IC50 on ATM came to 8.3 nM; in test [1], 65 nM. In the case of `CC(C)n1c(=O)n(C)c2nnc3ccc(-c4ccc([C@@H](C)OCCN5CCC6(COC6)C5)nc4)cc3c21` [Example 86, (R)-8-(6-(1-(2-(2-oxa-6-azaspiro[3.4]octan-6-yl)ethoxy)ethyl)pyridin-3-yl)-1-isopropyl-3-methyl-1H-imidazo[4,5-c]cinnolin-2(3H)-one], the IC50 at ATM is 3.6 nM; in test [1], 12 nM. As for `Cn1c(=O)n(C2CCOCC2)c2c3cc(-c4ccc(COCCN5CCC(C)(C)C5)nc4)ccc3nnc21` [Example 97, 8-(6-((2-(3,3-dimethylpyrrolidin-1-yl)ethoxy)methyl)pyridin-3-yl)-3-methyl-1-(tetrahydro-2H-pyran-4-yl)-1H-imidazo[4,5-c]cinnolin-2(3H)-one], the IC50 on ATM came out at 14 nM; in test [1], 43 nM. For the compound `C[C@@H](OCCN1CCC(C)(C)CC1)c1ccc(-c2ccc3nnc4c(c3c2)n(C2CCOCC2)c(=O)n4C)cn1` [Example 103, (R)-8-(6-(1-(2-(4,4-dimethylpiperidin-1-yl)ethoxy)ethyl)pyridin-3-yl)-3-methyl-1-(tetrahydro-2H-pyran-4-yl)-1H-imidazo[4,5-c]cinnolin-2(3H)-one], the half-inhibitory concentration (IC50) at ATM was 3.9 nM; in test [1], 20 nM. Consider `CO[C@H]1CCN(CCO[C@H](C)c2ccc(-c3ccc4nnc5c(c4c3)n(C3CCOCC3)c(=O)n5C)cn2)C1` [Example 105, 8-(6-((R)-1-(2-((S)-3-methoxypyrrolidin-1-yl)ethoxy)ethyl)pyridin-3-yl)-3-methyl-1-(tetrahydro-2H-pyran-4-yl)-1H-imidazo[4,5-c]cinnolin-2(3H)-one], for which the IC50 in test [1] was 36 nM. With `COC1CCN(CCO[C@H](C)c2ccc(-c3ccc4nnc5c(c4c3)n(C3CCOCC3)c(=O)n5C)cn2)CC1` [Example 110, (R)-8-(6-(1-(2-(4-methoxypiperidin-1-yL)ethoxy)ethyl)pyridin-3-yl)-3-methyl-1-(tetrahydro-2H-pyran-4-yl)-1H-imidazo[4,5-c]cinnolin-2(3H)-one], the IC50 at ATM was 6.9 nM; in test [1] it was 13 nM. As for `C[C@@H](OCCN1CCC(C(F)(F)F)CC1)c1ccc(-c2ccc3nnc4c(c3c2)n(C2CCOCC2)c(=O)n4C)cn1` [Example 117, (R)-3-methyl-1-(tetrahydro-2H-pyran-4-yl)-8-(6-(1-(2-(4-(trifluoromethyl)piperidin-1-yl)ethoxy)ethyl)pyridin-3-yl)-1H-imidazo[4,5-c]cinnolin-2(3H)-one], the IC50 at ATM is 3.7 nM; in test [1], 65 nM. Turning to `CO[C@H]1C[C@H](n2c(=O)n(C)c3nnc4ccc(-c5ccc(COCCN6CC7CC7C6)nc5)cc4c32)C1` (stereo partly drawn) [Example 169, 8-(6-((2-(3-azabicyclo[3.1.0]hexan-3-yl)ethoxy)methyl)pyridin-3-yl)-1-(trans-3-methoxycyclobutyl)-3-methyl-1H-imidazo[4,5-c]cinnolin-2(3H)-one], on ATM, the IC50 came to 42 nM. On the same count and under the same terms, next, `CO[C@H]1C[C@@H](n2c(=O)n(C)c3nnc4ccc(-c5ccc([C@@H](C)OCCN6CCC7(CC6)CC7)nc5)cc4c32)C1` [Example 170, 8-(6-((R)-1-(2-(6-azaspiro[2.5]octan-6-yl)ethoxy)ethyl)pyridin-3-yl)-1-(cis-3-methoxycyclobutyl)-3-methyl-1H-imidazo[4,5-c]cinnolin-2(3H)-one]: 1.6 nM; `CO[C@H]1C[C@@H](n2c(=O)n(C)c3nnc4ccc(-c5ccc([C@@H](C)OCCN6CCC7(CC7)C6)nc5)cc4c32)C1` [Example 171, 8-(6-((R)-1-(2-(5-azaspiro[2.4]heptan-5-yl)ethoxy)ethyl)pyridin-3-yl)-1-(cis-3-methoxycyclobutyl)-3-methyl-1H-imidazo[4,5-c]cinnolin-2(3H)-one]: 2.5 nM. Take `CO[C@H]1C[C@@H](n2c(=O)n(C)c3nnc4ccc(-c5ccc(COCCN6CCCC6)nc5)cc4c32)C1` [Example 172, 1-(cis-3-methoxycyclobutyl)-3-methyl-8-(6-((2-(pyrrolidin-1-yl)ethoxy)methyl)pyridin-3-yl)-1H-imidazo[4,5-c]cinnolin-2(3H)-one]: on ATM, the half-maximal inhibitory concentration (IC50) was 21 nM.

On to `CO[C@H]1C[C@@H](n2c(=O)n(C)c3nnc4ccc(-c5ccc(COCCN6CCCCC6)nc5)cc4c32)C1` [Example 173, 1-(cis-3-methoxycyclobutyl)-3-methyl-8-(6-((2-(piperidin-1-yl)ethoxy)methyl)pyridin-3-yl)-1H-imidazo[4,5-c]cinnolin-2(3H)-one], for which the IC50 on ATM was 32 nM. As to `CO[C@H]1C[C@@H](n2c(=O)n(C)c3nnc4ccc(-c5ccc(COCCN(C)C)nc5)cc4c32)C1` [Example 176, 8-(6-((2-(dimethylamino)ethoxy)methyl)pyridin-3-yl)-1-(cis-3-methoxycyclobutyl)-3-methyl-1H-imidazo[4,5-c]cinnolin-2(3H)-one], the IC50 at ATM was 65 nM.

Turning to `Cn1c(=O)n(C2COC2)c2c3cc(-c4ccc(COCCN5CCC(F)CC5)nc4)ccc3nnc21` [Example 179, 8-(6-((2-(4-fluoropiperidin-1-yl)ethoxy)methyl)pyridin-3-yl)-3-methyl-1-(oxetan-3-yl)-1H-imidazo[4,5-c]cinnolin-2(3H)-one], the IC50 on ATM turned out to be 729 nM.

Consider `Cn1c(=O)n([C@H]2CCCOC2)c2c3cc(-c4ccc(COCCN5CCC(F)CC5)nc4)ccc3nnc21` [Example 182, (S)-8-(6-((2-(4-fluoropiperidin-1-yl)ethoxy)methyl)pyridin-3-yl)-3-methyl-1-(tetrahydro-2H-pyran-3-yl)-1H-imidazo[4,5-c]cinnolin-2(3H)-one], for which the half-maximal inhibitory concentration (IC50) at ATM worked out at 21 nM. In the case of `Cn1c(=O)n([C@H]2CCCOC2)c2c3cc(-c4ccc(COCCN5CC6CC6C5)nc4)ccc3nnc21` (stereo partly drawn) [Example 183, 8-(6-((2-(3-azabicyclo[3.1.0]hexan-3-yl)ethoxy)methyl)pyridin-3-yl)-3-methyl-1-((S)-tetrahydro-2H-pyran-3-yl)-1H-imidazo[4,5-c]cinnolin-2(3H)-one], on ATM, the concentration for half-maximal inhibition (IC50) was 20 nM. With `CC(C)n1c(=O)n(C)c2nnc3ccc(-c4ccc([C@@H](C)OCC(=O)O)nc4)cc3c21` [Example 216, (R)-2-(1-(5-(1-isopropyl-3-methyl-2-oxo-2,3-dihydro-1H-imidazo[4,5-c]cinnolin-8-yl)pyridin-2-yl)ethoxy)acetic acid], on ATM, the IC50 came to 339 nM.

Consider `CC(C)n1c(=O)n(C)c2nnc3ccc(-c4ccc(C(C)(C)OCCN5CC6CC6C5)nc4)cc3c21` (stereo not drawn) [Example 217, 8-(6-(2-(2-(3-azabicyclo[3.1.0]hexan-3-yl)ethoxy)propan-2-yl)pyridin-3-yl)-1-isopropyl-3-methyl-1H-imidazo[4,5-c]cinnolin-2(3H)-one], for which the IC50 at ATM came to 72 nM. `CCC(OCCN1CCCC1)c1ccc(-c2ccc3nnc4c(c3c2)n(C(C)C)c(=O)n4C)cn1` (stereo not drawn) [Example 219, 1-isopropyl-3-methyl-8-(6-(1-(2-(pyrrolidin-1-yl)ethoxy)propyl)pyridin-3-yl)-1H-imidazo[4,5-c]cinnolin-2(3H)-one]: at ATM, the IC50 was determined as 57 nM. Still for that read-out and setting: next, `CCCC(OCCN1CCCC1)c1ccc(-c2ccc3nnc4c(c3c2)n(C(C)C)c(=O)n4C)cn1` (stereo not drawn) [Example 220, 1-isopropyl-3-methyl-8-(6-(1-(2-(pyrrolidin-1-yl)ethoxy)butyl)pyridin-3-yl)-1H-imidazo[4,5-c]cinnolin-2(3H)-one]: 147 nM; `CC(C)C(OCCN1CCCC1)c1ccc(-c2ccc3nnc4c(c3c2)n(C(C)C)c(=O)n4C)cn1` (stereo not drawn) [Example 221, 1-isopropyl-3-methyl-8-(6-(2-methyl-1-(2-(pyrrolidin-1-yl)ethoxy)propyl)pyridin-3-yl)-1H-imidazo[4,5-c]cinnolin-2(3H)-one]: 156 nM.

Source of the values: patent US20240207263A1, “SELECTIVE MODULATORS OF ATAXIA TELA[…] (ATM) KINASE AND USES THEREOF” (priority 2021, published 2024).
